Experimental data reported in patent publication US8163709B2, “TAK1-D mediated induction of cell death in human cancer cells by specific sequence short double-stranded RNAS” (Board of Regents of the University of Texas System, priority 2008, dated 2012).
“Also recorded” adds a separate entry of the source.

Tests used:
cdc25A = cdc25A phosphorylation in nuclei of NCI-H460 cells; format: cell-based, human; conditions: 2 h
From the text: P38 MAPK as well as SPK/JNK have a large number of downstream targets. Amongst these, the phosphorylation of the cell cycle control phosphatase cdc25 (Bulavin et al., 2001; Goss et al., 2003) are of particular interest, as these phosphorylations have the potential to transduce an immediate and direct effect of TAK1-D activation to the cell cycle. […] In contrast, both cdc25A and cdc25B were found in the nucleus and therefore capable of cell cycle control. […] The occurrence of this shifted form of cdc25A is indicative of phosphorylation and inactivation of cdc25A (Zhao et al., 2002). The amount of cdc25B in the nucleus decreases with kinetics similar to the phosphorylation of cdc25A, indicative for a phosphorylation dependent translocation and proteolytic digestion of cdc25B (Cans et al., 1999). Therefore, it can be concluded that activation of TAK1-D in NCI-H460 cells leads to an inactivation of cdc25A and cdc25B through p38 MAPK and SAPK/JNK mediated phosphorylation and proteolytic destruction.

TAK1-D = molecular target: T1, TAK1-D (Homo sapiens, UniProt O43318); assay: Subcellular localization of TAK1-D in H460 cells (fractionation, immunofluorescence); format: cell-based; set-up: endogenous in cells; host or cells: NCI-H460
T1 sequence (O43318 1-491 isoform O43318-4): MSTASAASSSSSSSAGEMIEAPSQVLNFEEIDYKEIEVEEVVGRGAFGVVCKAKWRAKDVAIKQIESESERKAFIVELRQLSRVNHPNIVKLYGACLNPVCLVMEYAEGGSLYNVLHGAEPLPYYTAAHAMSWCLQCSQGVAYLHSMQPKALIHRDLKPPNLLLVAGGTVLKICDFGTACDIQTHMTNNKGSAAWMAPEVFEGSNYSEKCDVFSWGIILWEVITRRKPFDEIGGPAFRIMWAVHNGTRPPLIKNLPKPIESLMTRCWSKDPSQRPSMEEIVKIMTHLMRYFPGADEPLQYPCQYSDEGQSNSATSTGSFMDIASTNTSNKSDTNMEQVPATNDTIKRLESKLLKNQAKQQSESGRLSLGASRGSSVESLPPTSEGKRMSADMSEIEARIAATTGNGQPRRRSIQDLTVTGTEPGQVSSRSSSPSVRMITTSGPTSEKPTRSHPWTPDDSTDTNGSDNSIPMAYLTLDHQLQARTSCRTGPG
Procedure: Subcellular fractionation. About […] H460 cells growing in a 10 cm dish were transfected with 20 nM dsRNA si5 or si6. […] A crude nuclear pellet (P.7) was obtained by centrifugation at 700 g and 4° C. for 5 minutes. The supernatant was centrifuged at 10,000 g and 4° C. for 30 minutes producing the P10 pellet and finally separated by ultracentrifugation (Sorvall 90SE ultracentrifuge and Sorvall AH-629 rotor) at 150,000 g and 4° C. for 1 hour into pellet (P150) and supernatant (S150). Proteins from the S150 fraction were concentrated by precipitation with 10% trichloroacetic acid (TCA). All pellets were dissolved in SDS sample buffer.
Immunofluorescence. H460 cells stably expressing TAK1-D fused on its c-terminus to a FLAG tag were generated as described above for the K36W mutant. Cells were transfected with 20 nM si5 or si6 and fixed in 4% formaldehyde 6 h later. After 15 min of fixation at room temperature cells were washed 3 times in PBS and permeabilized in methanol at −20° C. for 10 min. After one wash in PBS slides were blocked for 1 hour at room temperature in PBS containing 1% BSA. […] After three 5 min washes in PBS cells were visualized by fluorescence microscopy. […]

Substance: si5: 21-mer siRNA against TLK1 mRNA: GGCUUUUGACCUUUAUGAAtt (SEQ ID NO: 2) / ttCCGAAAACUGGAAAUACUU (SEQ ID NO: 3) (sense GGCUUUUGACCUUUAUGAATT; antisense TTCCGAAAACUGGAAAUACUU; chemistry not given here; one strand is listed 3' to 5')
- phosphorylation of nuclear cdc25A (intensity of the upper band) (cdc25A): increases in intensity within 2 h; also recorded: increased phosphorylation as early as 2 h
- colocalization of FLAG-TAK1-D and ribosomes (S6) (TAK1-D; H460, 20 nM, 6 h, immunofluorescence): increased colocalization
- amount of TAK1-D in the 150,000 g pellet (TAK1-D; H460, 4 h, compared to control si6): increased
